Test results taken from ChEMBL document CHEMBL3137667, “[Drug-induced liver injury; fourteenth updated edition of the bibliographic database of liver injuries and related drugs]” (Gastroenterol Clin Biol, 2004).

Experiments:
[1] = human
[2] = Presence of at least one case with successful reintroduction. [column 'REINT' in source]; conditions: human
[3] = human; remark: listed apart in the source
[4] = human; remark: listed apart in the source
[5] = human; remark: listed apart in the source
[6] = Times to onset, minimal and maximal, observed in the indexed observations. [column 'DELAI' in source]; conditions: human
[7] = human; remark: listed apart in the source
[8] = human, serum
[9] = human, serum, 4383 h
[10] = Highest frequency of moderate liver toxicity observed during clinical trials, expressed as a percentage. [column '% BIOL' in source]; conditions: human
[11] = human, serum; remark: listed apart in the source
[12] = human; remark: listed apart in the source
[13] = Proposed mechanism(s) of liver damage. [column 'MEC' in source]; conditions: human
[14] = human; remark: listed apart in the source
[15] = Highest frequency of acute liver toxicity observed during clinical trials, expressed as a percentage. [column '% AIGUE' in source]; conditions: human
[16] = human; remark: listed apart in the source
[17] = human; remark: listed apart in the source
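Wherever Hepatotoxicity (association with vascular disease) is given: count of indexed literature references reporting vascular liver injury in humans, e.g. peliosis hepatitis, hepatic veno-occlusive disease or Budd-Chiari syndrome.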
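Wherever Hepatotoxicity (benign tumour) is given: value is a count of indexed literature references citing a benign tumour confirmed by histopathology.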
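Wherever Hepatotoxicity (choleostasis) is given: human cholestatic liver injury, shown by histopathology or by peak ALT or AST elevation over alkaline phosphatase ratio below 2, value counts indexed literature reports.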
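Wherever Hepatotoxicity (chronic liver disease) is given: chronic liver injury confirmed by histopathology or persistently raised serum aminotransferase activity beyond 6 months, value given as the count of indexed literature references.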
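Wherever Hepatotoxicity (cirrhosis) is given: value is a count of indexed literature references reporting cirrhosis confirmed by histopathology.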
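Wherever Hepatotoxicity (cytolytic) is given: human cytolytic liver injury, shown by histopathology or by a ratio above 5 of peak ALT or AST elevation to alkaline phosphatase elevation, value counts indexed references.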
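Wherever Hepatotoxicity (granulomatous hepatitis) is given: value is a count of indexed literature references reporting granulomatous liver disease confirmed by histopathology.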
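Wherever Hepatotoxicity (malignant tumour) is given: malignant tumour confirmed by histopathology, value gives the count of indexed literature references reporting it.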
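Wherever Hepatotoxicity (severe hepatitis) is given: human clinical data: severe hepatitis, meaning potentially life-threatening liver failure or clinically observed cases, the value counts how many indexed literature references report it.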
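Wherever Hepatotoxicity (steatosis) is given: steatosis confirmed by histopathology, value is the count of indexed references.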

Molecule: CCN(CC)Cc1cc(Nc2ccnc3cc(Cl)ccc23)ccc1O.Cl
- Hepatotoxicity (choleostasis) ([1]; Liver): 4
- Hepatotoxicity (successful reintroduction) [2]: yes
- Hepatotoxicity (cytolytic) ([3]; Liver): 11
- Hepatotoxicity (steatosis) [4]: 0
- Hepatotoxicity (severe hepatitis) ([5]; Liver): 8
- Hepatotoxicity (time to onset) [6]: 1 week - 1 year
- Hepatotoxicity (malignant tumour) [7]: 0
- Hepatotoxicity (acute) [8]: 18
- Hepatotoxicity (chronic liver disease) [9]: 0
- Hepatotoxicity (moderate) ([10]; Liver): 0%
- Hepatotoxicity (moderate) [11]: 2
- Hepatotoxicity (association with vascular disease) [12]: 0
- Hepatotoxicity (mechanism) ([13]; Liver): Allergic, Dose-dependant, Reactive metabolite
- Hepatotoxicity (granulomatous hepatitis) ([14]; Liver): 0
- Hepatotoxicity (acute) ([15]; Liver): 6.7%
- Hepatotoxicity (cirrhosis) [16]: 1
- Hepatotoxicity (benign tumour) [17]: 0

Molecule: CCc1nc(N)nc(N)c1-c1ccc(Cl)cc1.COc1ncnc(NS(=O)(=O)c2ccc(N)cc2)c1OC
- Hepatotoxicity (choleostasis) [1]: 4
- Hepatotoxicity (successful reintroduction) [2]: yes
- Hepatotoxicity (cytolytic) [3]: 5
- Hepatotoxicity (steatosis) [4]: 0
- Hepatotoxicity (severe hepatitis) [5]: 3
- Hepatotoxicity (time to onset) [6]: 1 day - 3 months
- Hepatotoxicity (malignant tumour) [7]: 0
- Hepatotoxicity (acute) [8]: 14
- Hepatotoxicity (chronic liver disease) [9]: 0
- Hepatotoxicity (moderate) [10]: 22.5%
- Hepatotoxicity (moderate) [11]: 11
- Hepatotoxicity (association with vascular disease) [12]: 0
- Hepatotoxicity (mechanism) [13]: Allergic
- Hepatotoxicity (granulomatous hepatitis) [14]: 2
- Hepatotoxicity (acute) [15]: 23.5%
- Hepatotoxicity (cirrhosis) [16]: 0
- Hepatotoxicity (benign tumour) [17]: 0

Molecule: CCOC(N)=O
- Hepatotoxicity (choleostasis) [1]: 1
- Hepatotoxicity (successful reintroduction) [2]: yes
- Hepatotoxicity (cytolytic) [3]: 5
- Hepatotoxicity (steatosis) [4]: 0
- Hepatotoxicity (severe hepatitis) [5]: 4
- Hepatotoxicity (time to onset) [6]: 1 year - 2 years
- Hepatotoxicity (malignant tumour) [7]: 0
- Hepatotoxicity (acute) [8]: 5
- Hepatotoxicity (chronic liver disease) [9]: 0
- Hepatotoxicity (moderate) [10]: 0%
- Hepatotoxicity (moderate) [11]: 0
- Hepatotoxicity (association with vascular disease) [12]: 3
- Hepatotoxicity (mechanism) [13]: Dose-dependant
- Hepatotoxicity (granulomatous hepatitis) [14]: 0
- Hepatotoxicity (acute) [15]: 0%
- Hepatotoxicity (cirrhosis) [16]: 1
- Hepatotoxicity (benign tumour) [17]: 0

Molecule: CCCC(=O)Nc1ccc(OCC(O)CNC(C)C)c(C(C)=O)c1 (stereo not given) [ACEBUTOLOL]
- Hepatotoxicity (choleostasis) [1]: 1
- Hepatotoxicity (successful reintroduction) [2]: yes
- Hepatotoxicity (cytolytic) [3]: 1
- Hepatotoxicity (steatosis) [4]: 0
- Hepatotoxicity (severe hepatitis) ([5]; Liver): 0
- Hepatotoxicity (time to onset) [6]: 1 day - 1 month
- Hepatotoxicity (malignant tumour) [7]: 0
- Hepatotoxicity (chronic liver disease) [9]: 0
- Hepatotoxicity (moderate) ([10]; Liver): 0%
- Hepatotoxicity (moderate) [11]: 0
- Hepatotoxicity (association with vascular disease) [12]: 0
- Hepatotoxicity (mechanism) [13]: Allergic
- Hepatotoxicity (granulomatous hepatitis) [14]: 0
- Hepatotoxicity (acute) ([15]; Liver): 0%
- Hepatotoxicity (cirrhosis) [16]: 0
- Hepatotoxicity (benign tumour) [17]: 0

Molecule: CC[C@@]1(O)C[C@H](O[C@H]2C[C@H](N(C)C)[C@H](O[C@H]3C[C@H](O)[C@H](O[C@H]4CCC(=O)[C@H](C)O4)[C@H](C)O3)[C@H](C)O2)c2c(cc3c(c2O)C(=O)c2c(O)cccc2C3=O)[C@H]1C(=O)OC [ACLARUBICIN]
- Hepatotoxicity (choleostasis) [1]: 0
- Hepatotoxicity (successful reintroduction) [2]: yes
- Hepatotoxicity (cytolytic) [3]: 0
- Hepatotoxicity (steatosis) [4]: 0
- Hepatotoxicity (severe hepatitis) [5]: 1
- Hepatotoxicity (malignant tumour) [7]: 0
- Hepatotoxicity (acute) [8]: 0
- Hepatotoxicity (chronic liver disease) [9]: 0
- Hepatotoxicity (moderate) [10]: 26.7%
- Hepatotoxicity (moderate) [11]: 8
- Hepatotoxicity (association with vascular disease) [12]: 0
- Hepatotoxicity (mechanism) [13]: Dose-dependant
- Hepatotoxicity (granulomatous hepatitis) [14]: 0
- Hepatotoxicity (acute) [15]: 0%
- Hepatotoxicity (cirrhosis) [16]: 0
- Hepatotoxicity (benign tumour) [17]: 0

Molecule: COC(=O)C1=C(C)NC(C)=C(C(=O)OC)C1c1ccccc1[N+](=O)[O-] [NIFEDIPINE]
- Hepatotoxicity (choleostasis) [1]: 7
- Hepatotoxicity (successful reintroduction) [2]: yes
- Hepatotoxicity (cytolytic) [3]: 5
- Hepatotoxicity (steatosis) [4]: 3
- Hepatotoxicity (severe hepatitis) [5]: 2
- Hepatotoxicity (time to onset) [6]: 2 days - 6 years
- Hepatotoxicity (malignant tumour) [7]: 0
- Hepatotoxicity (chronic liver disease) [9]: 0
- Hepatotoxicity (moderate) [10]: 12%
- Hepatotoxicity (moderate) [11]: 6
- Hepatotoxicity (mechanism) [13]: Allergic
- Hepatotoxicity (granulomatous hepatitis) [14]: 0
- Hepatotoxicity (acute) [15]: 4%
- Hepatotoxicity (cirrhosis) [16]: 0
- Hepatotoxicity (benign tumour) [17]: 0

Molecule: Nc1nc2ccc(OC(F)(F)F)cc2s1 [RILUZOLE]
- Hepatotoxicity (choleostasis) [1]: 0
- Hepatotoxicity (successful reintroduction) [2]: yes
- Hepatotoxicity (cytolytic) [3]: 5
- Hepatotoxicity (steatosis) [4]: 1
- Hepatotoxicity (severe hepatitis) [5]: 0
- Hepatotoxicity (time to onset) [6]: 15 days - 9 months
- Hepatotoxicity (malignant tumour) [7]: 0
- Hepatotoxicity (acute) [8]: 5
- Hepatotoxicity (chronic liver disease) [9]: 0
- Hepatotoxicity (moderate) [10]: 17%
- Hepatotoxicity (moderate) [11]: 5
- Hepatotoxicity (mechanism) [13]: Dose-dependant
- Hepatotoxicity (granulomatous hepatitis) [14]: 0
- Hepatotoxicity (acute) [15]: 3.8%
- Hepatotoxicity (cirrhosis) [16]: 0
- Hepatotoxicity (benign tumour) [17]: 0

Molecule: Clc1ccc2nsnc2c1NC1=NCCN1 [TIZANIDINE]
- Hepatotoxicity (choleostasis) ([1]; Liver): 0
- Hepatotoxicity (successful reintroduction) [2]: yes
- Hepatotoxicity (cytolytic) ([3]; Liver): 1
- Hepatotoxicity (steatosis) [4]: 1
- Hepatotoxicity (severe hepatitis) ([5]; Liver): 2
- Hepatotoxicity (time to onset) [6]: 6 days - 3.5 months
- Hepatotoxicity (malignant tumour) [7]: 0
- Hepatotoxicity (chronic liver disease) [9]: 0
- Hepatotoxicity (moderate) ([10]; Liver): 0%
- Hepatotoxicity (moderate) [11]: 2
- Hepatotoxicity (association with vascular disease) [12]: 0
- Hepatotoxicity (mechanism) ([13]; Liver): Allergic
- Hepatotoxicity (granulomatous hepatitis) ([14]; Liver): 0
- Hepatotoxicity (cirrhosis) [16]: 0
- Hepatotoxicity (benign tumour) [17]: 0

Molecule: CN(C)C/C=C(/c1ccc(Br)cc1)c1cccnc1 [ZIMELDINE]
- Hepatotoxicity (choleostasis) [1]: 3
- Hepatotoxicity (successful reintroduction) [2]: yes
- Hepatotoxicity (cytolytic) [3]: 3
- Hepatotoxicity (steatosis) [4]: 0
- Hepatotoxicity (severe hepatitis) [5]: 0
- Hepatotoxicity (time to onset) [6]: 2 weeks - 2 months
- Hepatotoxicity (malignant tumour) [7]: 0
- Hepatotoxicity (acute) [8]: 4
- Hepatotoxicity (chronic liver disease) [9]: 0
- Hepatotoxicity (moderate) [10]: 20.5%
- Hepatotoxicity (moderate) [11]: 9
- Hepatotoxicity (association with vascular disease) [12]: 0
- Hepatotoxicity (granulomatous hepatitis) [14]: 2
- Hepatotoxicity (acute) [15]: 6.6%
- Hepatotoxicity (cirrhosis) [16]: 0
- Hepatotoxicity (benign tumour) [17]: 0

Molecule: ENOXAPARIN
- Hepatotoxicity (choleostasis) [1]: 0
- Hepatotoxicity (successful reintroduction) [2]: yes
- Hepatotoxicity (cytolytic) [3]: 0
- Hepatotoxicity (steatosis) [4]: 0
- Hepatotoxicity (severe hepatitis) [5]: 0
- Hepatotoxicity (time to onset) [6]: 12 hours - 2 weeks
- Hepatotoxicity (malignant tumour) [7]: 0
- Hepatotoxicity (acute) [8]: 0
- Hepatotoxicity (chronic liver disease) [9]: 0
- Hepatotoxicity (moderate) [10]: 36%
- Hepatotoxicity (moderate) [11]: 8
- Hepatotoxicity (association with vascular disease) [12]: 0
- Hepatotoxicity (granulomatous hepatitis) [14]: 0
- Hepatotoxicity (acute) [15]: 0%
- Hepatotoxicity (cirrhosis) [16]: 0
- Hepatotoxicity (benign tumour) [17]: 0

Molecule: FILGRASTIM
- Hepatotoxicity (choleostasis) [1]: 1
- Hepatotoxicity (successful reintroduction) [2]: yes
- Hepatotoxicity (cytolytic) [3]: 2
- Hepatotoxicity (steatosis) [4]: 0
- Hepatotoxicity (severe hepatitis) [5]: 0
- Hepatotoxicity (time to onset) [6]: 3 days - 8 days
- Hepatotoxicity (malignant tumour) [7]: 0
- Hepatotoxicity (acute) [8]: 2
- Hepatotoxicity (chronic liver disease) [9]: 0
- Hepatotoxicity (moderate) [10]: 75%
- Hepatotoxicity (moderate) [11]: 7
- Hepatotoxicity (association with vascular disease) [12]: 0
- Hepatotoxicity (granulomatous hepatitis) [14]: 0
- Hepatotoxicity (acute) [15]: 0%
- Hepatotoxicity (cirrhosis) [16]: 0
- Hepatotoxicity (benign tumour) [17]: 0

Molecule: INSULIN HUMAN
- Hepatotoxicity (choleostasis) [1]: 0
- Hepatotoxicity (successful reintroduction) [2]: yes
- Hepatotoxicity (cytolytic) [3]: 1
- Hepatotoxicity (steatosis) [4]: 0
- Hepatotoxicity (severe hepatitis) [5]: 0
- Hepatotoxicity (time to onset) [6]: 6 days - 1 month
- Hepatotoxicity (malignant tumour) [7]: 0
- Hepatotoxicity (acute) [8]: 1
- Hepatotoxicity (chronic liver disease) [9]: 0
- Hepatotoxicity (moderate) [10]: 0%
- Hepatotoxicity (moderate) [11]: 5
- Hepatotoxicity (association with vascular disease) [12]: 0
- Hepatotoxicity (granulomatous hepatitis) [14]: 0
- Hepatotoxicity (acute) [15]: 0%
- Hepatotoxicity (cirrhosis) [16]: 0
- Hepatotoxicity (benign tumour) [17]: 0

Molecule: PEGVISOMANT
- Hepatotoxicity (choleostasis) [1]: 0
- Hepatotoxicity (successful reintroduction) [2]: yes
- Hepatotoxicity (cytolytic) [3]: 2
- Hepatotoxicity (steatosis) [4]: 0
- Hepatotoxicity (severe hepatitis) [5]: 0
- Hepatotoxicity (time to onset) [6]: 4 weeks - 8 weeks
- Hepatotoxicity (malignant tumour) [7]: 0
- Hepatotoxicity (acute) [8]: 2
- Hepatotoxicity (chronic liver disease) [9]: 0
- Hepatotoxicity (moderate) [10]: 0%
- Hepatotoxicity (moderate) [11]: 0
- Hepatotoxicity (association with vascular disease) [12]: 0
- Hepatotoxicity (granulomatous hepatitis) [14]: 0
- Hepatotoxicity (acute) [15]: 1.3%
- Hepatotoxicity (cirrhosis) [16]: 0
- Hepatotoxicity (benign tumour) [17]: 0

Molecule: PENTOSAN POLYSULFATE SODIUM
- Hepatotoxicity (choleostasis) [1]: 0
- Hepatotoxicity (successful reintroduction) [2]: yes
- Hepatotoxicity (cytolytic) [3]: 1
- Hepatotoxicity (steatosis) [4]: 0
- Hepatotoxicity (severe hepatitis) [5]: 0
- Hepatotoxicity (time to onset) [6]: 1 week - 2 weeks
- Hepatotoxicity (malignant tumour) [7]: 0
- Hepatotoxicity (acute) [8]: 1
- Hepatotoxicity (chronic liver disease) [9]: 0
- Hepatotoxicity (moderate) [10]: 75%
- Hepatotoxicity (moderate) [11]: 5
- Hepatotoxicity (association with vascular disease) [12]: 0
- Hepatotoxicity (granulomatous hepatitis) [14]: 0
- Hepatotoxicity (acute) [15]: 0%
- Hepatotoxicity (cirrhosis) [16]: 0
- Hepatotoxicity (benign tumour) [17]: 0
